# In US20230085307A1, “PYRIDAZINONE COMPOUND AND HERBICIDE” (NISSAN CHEMICAL CORPORATION, priority 2019, published 2023):
# Tested on: barnyard grass
# Assay: Test Example 3: herbicidal effect by foliage application, Wagner pot (Table 18, symbol H)
# Format: in vivo, barnyard grass (Echinochloa crus-galli)
# Conditions: 320 g/ha
# Outline: (§1)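 Plants were sown in alluvial soil held under 0.1–0.5 cm standing water and grown 14 days in a greenhouse at 25–30 °C. An emulsifiable formulation, water-diluted to the set dose, was then sprayed onto the foliage, and effects were scored three weeks later using previously defined criteria.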
row,Structure (SMILES),"herbicidal effect on H (barnyard grass), rating 0-5"
1,COc1ccc(-c2sc3ccccc3c2-c2c(O)c(OC)nn(C)c2=O)c(OC)c1 [1-180],1 (Herbicidal rate of 5% or more and less than 20%)

# Tested on: Chinese sprangletop
# Assay: Test Example 3: herbicidal effect by foliage application, Wagner pot (Table 18, symbol D)
# Format: in vivo, chinese sprangletop (Leptochloa chinensis)
# Conditions: 320 g/ha
# Outline: as §1
row,Structure (SMILES),"herbicidal effect on D (Chinese sprangletop), rating 0-5"
1,COc1ccc(-c2sc3ccccc3c2-c2c(O)c(OC)nn(C)c2=O)c(OC)c1 [1-180],0 (Herbicidal rate of 5% or less (almost no effect))

# Tested on: rice flat sedge
# Assay: Test Example 3: herbicidal effect by foliage application, Wagner pot (Table 18, symbol E)
# Format: in vivo, rice flat sedge (Cyperus iria)
# Conditions: 320 g/ha
# Outline: as §1
row,Structure (SMILES),"herbicidal effect on E (rice flat sedge), rating 0-5"
1,COc1ccc(-c2sc3ccccc3c2-c2c(O)c(OC)nn(C)c2=O)c(OC)c1 [1-180],4 (Herbicidal rate of 70% or more and less than 90%)

# Tested on: southern crabgrass
# Assay: Test Example 4: herbicidal effect by soil treatment (Table 19, symbol F)
# Format: in vivo, southern crabgrass (Digitaria ciliaris)
# Conditions: AAH 320 g/ha
# Outline: (§2)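 Pre-emergence style soil spray: seeds under ~1.5 cm sterilized diluvial soil received a uniform coat of emulsion diluted to the predetermined herbicide amount. Greenhouse 25–30° C; readout at week three on previously defined criteria.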
row,Structure (SMILES),"F: southern crabgrass, herbicidal effect rating"
1,COc1ccc(-c2sc3ccccc3c2-c2c(O)c(OC)nn(C)c2=O)c(OC)c1 [1-180],0 (Herbicidal rate of 5% or less (almost no effect))

# Tested on: green foxtail
# Assay: Test Example 4: herbicidal effect by soil treatment (Table 19, symbol G)
# Format: in vivo, green foxtail (Setaria viridis)
# Conditions: AAH 320 g/ha
# Outline: as §2
row,Structure (SMILES),"G: green foxtail, herbicidal effect rating"
1,COc1ccc(-c2sc3ccccc3c2-c2c(O)c(OC)nn(C)c2=O)c(OC)c1 [1-180],0 (Herbicidal rate of 5% or less (almost no effect))

# Tested on: barnyard grass
# Assay: Test Example 4: herbicidal effect by soil treatment (Table 19, symbol H)
# Format: in vivo, barnyard grass (Echinochloa crus-galli)
# Conditions: AAH 320 g/ha
# Outline: as §2
row,Structure (SMILES),"H: barnyard grass, herbicidal effect rating"
1,COc1ccc(-c2sc3ccccc3c2-c2c(O)c(OC)nn(C)c2=O)c(OC)c1 [1-180],0 (Herbicidal rate of 5% or less (almost no effect))

# Tested on: wild oat
# Assay: Test Example 4: herbicidal effect by soil treatment (Table 19, symbol I)
# Format: in vivo, wild oat (Avena fatua)
# Conditions: AAH 320 g/ha
# Outline: as §2
row,Structure (SMILES),"I: wild oat, herbicidal effect rating"
1,COc1ccc(-c2sc3ccccc3c2-c2c(O)c(OC)nn(C)c2=O)c(OC)c1 [1-180],2 (Herbicidal rate of 20% or more and less than 40%)

# Tested on: blackgrass
# Assay: Test Example 4: herbicidal effect by soil treatment (Table 19, symbol J)
# Format: in vivo, blackgrass (Alopecurus myosuroides)
# Conditions: AAH 320 g/ha
# Outline: as §2
row,Structure (SMILES),"J: blackgrass, herbicidal effect rating"
1,COc1ccc(-c2sc3ccccc3c2-c2c(O)c(OC)nn(C)c2=O)c(OC)c1 [1-180],0 (Herbicidal rate of 5% or less (almost no effect))

# Tested on: Italian ryegrass
# Assay: Test Example 4: herbicidal effect by soil treatment (Table 19, symbol K)
# Format: in vivo, Italian ryegrass (Lolium multiflorum)
# Conditions: AAH 320 g/ha
# Outline: as §2
row,Structure (SMILES),"K: Italian ryegrass, herbicidal effect rating"
1,COc1ccc(-c2sc3ccccc3c2-c2c(O)c(OC)nn(C)c2=O)c(OC)c1 [1-180],0 (Herbicidal rate of 5% or less (almost no effect))

# Tested on: windgrass
# Assay: Test Example 4: herbicidal effect by soil treatment (Table 19, symbol L)
# Format: in vivo, windgrass (Apera spica-venti)
# Conditions: AAH 320 g/ha
# Outline: as §2
row,Structure (SMILES),"L: windgrass, herbicidal effect rating"
1,COc1ccc(-c2sc3ccccc3c2-c2c(O)c(OC)nn(C)c2=O)c(OC)c1 [1-180],0 (Herbicidal rate of 5% or less (almost no effect))

# Tested on: velvetleaf
# Assay: Test Example 4: herbicidal effect by soil treatment (Table 19, symbol M)
# Format: in vivo, velvetleaf (Abutilon theophrasti)
# Conditions: AAH 320 g/ha
# Outline: as §2
row,Structure (SMILES),"M: velvetleaf, herbicidal effect rating"
1,COc1ccc(-c2sc3ccccc3c2-c2c(O)c(OC)nn(C)c2=O)c(OC)c1 [1-180],0 (Herbicidal rate of 5% or less (almost no effect))

# Tested on: redroot pigweed
# Assay: Test Example 4: herbicidal effect by soil treatment (Table 19, symbol N)
# Format: in vivo, redroot pigweed (Amaranthus retroflexus)
# Conditions: AAH 320 g/ha
# Outline: as §2
row,Structure (SMILES),"N: redroot pigweed, herbicidal effect rating"
1,COc1ccc(-c2sc3ccccc3c2-c2c(O)c(OC)nn(C)c2=O)c(OC)c1 [1-180],0 (Herbicidal rate of 5% or less (almost no effect))

# Tested on: lambsquarters
# Assay: Test Example 4: herbicidal effect by soil treatment (Table 19, symbol O)
# Format: in vivo, lambsquarters (Chenopodium album)
# Conditions: AAH 320 g/ha
# Outline: as §2
row,Structure (SMILES),"O: lambsquarters, herbicidal effect rating"
1,COc1ccc(-c2sc3ccccc3c2-c2c(O)c(OC)nn(C)c2=O)c(OC)c1 [1-180],0 (Herbicidal rate of 5% or less (almost no effect))

# Tested on: chickweed
# Assay: Test Example 4: herbicidal effect by soil treatment (Table 19, symbol P)
# Format: in vivo, common chickweed (Stellaria media)
# Conditions: AAH 320 g/ha
# Outline: as §2
row,Structure (SMILES),"P: chickweed, herbicidal effect rating"
1,COc1ccc(-c2sc3ccccc3c2-c2c(O)c(OC)nn(C)c2=O)c(OC)c1 [1-180],4 (Herbicidal rate of 70% or more and less than 90%)

# Tested on: persian speedwell
# Assay: Test Example 4: herbicidal effect by soil treatment (Table 19, symbol R)
# Format: in vivo, Persian speedwell (Veronica persica)
# Conditions: AAH 320 g/ha
# Outline: as §2
row,Structure (SMILES),"R: persian speedwell, herbicidal effect rating"
1,COc1ccc(-c2sc3ccccc3c2-c2c(O)c(OC)nn(C)c2=O)c(OC)c1 [1-180],4 (Herbicidal rate of 70% or more and less than 90%)

# Tested on: southern crabgrass
# Assay: Test Example 5: herbicidal effect by foliage application, plastic box (Table 20, symbol F)
# Format: in vivo, southern crabgrass (Digitaria ciliaris)
# Conditions: foliage application, AAH 320 g/ha, three weeks after application
# Outline: (§3)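 Plants were sown into sterilized diluvial soil under about 1.5 cm cover and kept in a greenhouse at 25° C. to 30° C. Fourteen days on, foliage received an even spray of the diluted emulsion. Herbicidal or crop effect was judged three weeks afterwards.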
row,Structure (SMILES),"F: southern crabgrass, herbicidal effect"
1,COc1ccc(-c2sc3ccccc3c2-c2c(O)c(OC)nn(C)c2=O)c(OC)c1 [1-180],3 (Herbicidal rate of 40% or more and less than 70%)

# Tested on: green foxtail
# Assay: Test Example 5: herbicidal effect by foliage application, plastic box (Table 20, symbol G)
# Format: in vivo, green foxtail (Setaria viridis)
# Conditions: foliage application, AAH 320 g/ha, three weeks after application
# Outline: as §3
row,Structure (SMILES),"G: green foxtail, herbicidal effect"
1,COc1ccc(-c2sc3ccccc3c2-c2c(O)c(OC)nn(C)c2=O)c(OC)c1 [1-180],5 (Herbicidal rate of 90% or more (almost completely withered))

# Tested on: barnyard grass
# Assay: Test Example 5: herbicidal effect by foliage application, plastic box (Table 20, symbol H)
# Format: in vivo, barnyard grass (Echinochloa crus-galli)
# Conditions: foliage application, AAH 320 g/ha, three weeks after application
# Outline: as §3
row,Structure (SMILES),"H: barnyard grass, herbicidal effect"
1,COc1ccc(-c2sc3ccccc3c2-c2c(O)c(OC)nn(C)c2=O)c(OC)c1 [1-180],1 (Herbicidal rate of 5% or more and less than 20%)

# Tested on: wild oat
# Assay: Test Example 5: herbicidal effect by foliage application, plastic box (Table 20, symbol I)
# Format: in vivo, wild oat (Avena fatua)
# Conditions: foliage application, AAH 320 g/ha, three weeks after application
# Outline: as §3
row,Structure (SMILES),"I: wild oat, herbicidal effect"
1,COc1ccc(-c2sc3ccccc3c2-c2c(O)c(OC)nn(C)c2=O)c(OC)c1 [1-180],3 (Herbicidal rate of 40% or more and less than 70%)

# Tested on: blackgrass
# Assay: Test Example 5: herbicidal effect by foliage application, plastic box (Table 20, symbol J)
# Format: in vivo, blackgrass (Alopecurus myosuroides)
# Conditions: foliage application, AAH 320 g/ha, three weeks after application
# Outline: as §3
row,Structure (SMILES),"J: blackgrass, herbicidal effect"
1,COc1ccc(-c2sc3ccccc3c2-c2c(O)c(OC)nn(C)c2=O)c(OC)c1 [1-180],3 (Herbicidal rate of 40% or more and less than 70%)

# Tested on: Italian ryegrass
# Assay: Test Example 5: herbicidal effect by foliage application, plastic box (Table 20, symbol K)
# Format: in vivo, Italian ryegrass (Lolium multiflorum)
# Conditions: foliage application, AAH 320 g/ha, three weeks after application
# Outline: as §3
row,Structure (SMILES),"K: Italian ryegrass, herbicidal effect"
1,COc1ccc(-c2sc3ccccc3c2-c2c(O)c(OC)nn(C)c2=O)c(OC)c1 [1-180],3 (Herbicidal rate of 40% or more and less than 70%)

# Tested on: windgrass
# Assay: Test Example 5: herbicidal effect by foliage application, plastic box (Table 20, symbol L)
# Format: in vivo, windgrass (Apera spica-venti)
# Conditions: foliage application, AAH 320 g/ha, three weeks after application
# Outline: as §3
row,Structure (SMILES),"L: windgrass, herbicidal effect"
1,COc1ccc(-c2sc3ccccc3c2-c2c(O)c(OC)nn(C)c2=O)c(OC)c1 [1-180],3 (Herbicidal rate of 40% or more and less than 70%)

# Tested on: velvetleaf
# Assay: Test Example 5: herbicidal effect by foliage application, plastic box (Table 20, symbol M)
# Format: in vivo, velvetleaf (Abutilon theophrasti)
# Conditions: foliage application, AAH 320 g/ha, three weeks after application
# Outline: as §3
row,Structure (SMILES),"M: velvetleaf, herbicidal effect"
1,COc1ccc(-c2sc3ccccc3c2-c2c(O)c(OC)nn(C)c2=O)c(OC)c1 [1-180],0 (Herbicidal rate of 5% or less (almost no effect))

# Tested on: redroot pigweed
# Assay: Test Example 5: herbicidal effect by foliage application, plastic box (Table 20, symbol N)
# Format: in vivo, redroot pigweed (Amaranthus retroflexus)
# Conditions: foliage application, AAH 320 g/ha, three weeks after application
# Outline: as §3
row,Structure (SMILES),"N: redroot pigweed, herbicidal effect"
1,COc1ccc(-c2sc3ccccc3c2-c2c(O)c(OC)nn(C)c2=O)c(OC)c1 [1-180],3 (Herbicidal rate of 40% or more and less than 70%)

# Tested on: lambsquarters
# Assay: Test Example 5: herbicidal effect by foliage application, plastic box (Table 20, symbol O)
# Format: in vivo, lambsquarters (Chenopodium album)
# Conditions: foliage application, AAH 320 g/ha, three weeks after application
# Outline: as §3
row,Structure (SMILES),"O: lambsquarters, herbicidal effect"
1,COc1ccc(-c2sc3ccccc3c2-c2c(O)c(OC)nn(C)c2=O)c(OC)c1 [1-180],2 (Herbicidal rate of 20% or more and less than 40%)

# Tested on: chickweed
# Assay: Test Example 5: herbicidal effect by foliage application, plastic box (Table 20, symbol P)
# Format: in vivo, common chickweed (Stellaria media)
# Conditions: foliage application, AAH 320 g/ha, three weeks after application
# Outline: as §3
row,Structure (SMILES),"P: chickweed, herbicidal effect"
1,COc1ccc(-c2sc3ccccc3c2-c2c(O)c(OC)nn(C)c2=O)c(OC)c1 [1-180],5 (Herbicidal rate of 90% or more (almost completely withered))

# Tested on: persian speedwell
# Assay: Test Example 5: herbicidal effect by foliage application, plastic box (Table 20, symbol R)
# Format: in vivo, Persian speedwell (Veronica persica)
# Conditions: foliage application, AAH 320 g/ha, three weeks after application
# Outline: as §3
row,Structure (SMILES),"R: persian speedwell, herbicidal effect"
1,COc1ccc(-c2sc3ccccc3c2-c2c(O)c(OC)nn(C)c2=O)c(OC)c1 [1-180],4 (Herbicidal rate of 70% or more and less than 90%)
